Data: patent US20240390295A1, “METHODS FOR TREATING DEPRESSION” (JANSSEN PHARMACEUTICA NV, priority 2020, published 2024)

Tested on: adult patients (aged 18-64 years) with TRD
Experiment: Maximum time to onset of clinician-reported adverse events by AE week 1/week 4 occurrence (Tables 5-16; modal dose 56, modal dose 84, Total)
Type: in vivo, human
Experimental: Patients were monitored for >90 minutes after ESK administration at each treatment session, after which time they could leave the clinical site at the clinician's discretion. AEs were monitored and reported, and safety assessments, including clinical laboratory tests and physical examinations, were conducted throughout the study. Clinician-reported AEs were categorized as mild, moderate, or severe based on clinical judgement (Table 1).
Since flexible dosing (ESK 56 or 84 mg) was permitted in the studies and an individual patient's doses could change within dosing timeframes, patients were stratified by modal dose during the respective periods.
The time to onset of the adverse events experienced by patients in Example 2 was analyzed. Tables 5-11 include the summary of specific adverse events by their respective categorized maximum time to Onset (i) across sessions 3-8 during Induction Phase by AE week 1 occurrence (Table 5), (ii) during Optimization Phase by AE week 1 occurrence (Table 6), (iii) during Optimization Phase by AE week 4 occurrence (Table 7), (iv) during Month 3-6 of Maintenance Phase by AE week 1 occurrence (Table 8), (v) Month 3-6 of Maintenance Phase by AE week 4 occurrence (Table 9), (vi) Month 6-12 of Maintenance Phase by AE week 1 occurrence (Table 10), and (vii) during Month 6-12 of Maintenance Phase by AE week 4 (Table 11).
Tables 12-16 include the incidences of clinician-reported blood pressure (Table 12), clinician-reported dissociation (Table 13), dizziness (Table 14), sedation (Table 15), and vertigo (Table 16) spanning week 1 to month 12 using the data of Example 2.

[1] = Based on Week 1, None, Month 3-6
[2] = Based on Week 1, None, Month 6-12
[3] = Based on Week 1, None, Weeks 2-4
[4] = Based on Week 1, Once, Month 3-6
[5] = Based on Week 1, Once, Month 6-12
[6] = Based on Week 1, Once, Weeks 2-4
[7] = Based on Week 1, Twice, Month 2
[8] = Based on Week 1, Twice, Month 3-6
[9] = Based on Week 1, Twice, Month 6-12
[10] = Based on Week 1, Twice, Weeks 2-4
[11] = Based on Week 1, incidence None, Month 2
[12] = Based on Week 1, incidence None, Month 3-6
[13] = Based on Week 1, incidence None, Month 6-12
[14] = Based on Week 1, incidence None, Weeks 2-4
[15] = Based on Week 1, incidence Once, Month 2
[16] = Based on Week 1, incidence Once, Month 3-6
[17] = Based on Week 1, incidence Once, Month 6-12
[18] = Based on Week 1, incidence Once, Weeks 2-4
[19] = Based on Week 1, incidence Twice, Month 2
[20] = Based on Week 1, incidence Twice, Month 3-6
[21] = Based on Week 1, incidence Twice, Month 6-12
[22] = Based on Week 1, incidence Twice, Weeks 2-4
[23] = Based on Week 4, None, Month 3-6

## CN[C@]1(c2ccccc2Cl)CCCCC1=O [esketamine, (S)-2-(2-chlorophenyl)-2-(methylamino)cyclohexanone]
Based on Week 1, None, Month 2
  Blood Pressure (clinician): 0-30 m: 1
  Blood Pressure (clinician): 31-60 m: 12
  Blood Pressure (clinician): 61-90 m: 2
  Blood Pressure (clinician): % >60 m: 11.8%
  Blood Pressure (clinician): TOTAL: 17
  Blood Pressure (clinician): n >60 m: 2
[1]
  Blood Pressure (clinician): 31-60 m: 13
  Blood Pressure (clinician): 61-90 m: 1
  Blood Pressure (clinician): % >60 m: 5.9%
  Blood Pressure (clinician): TOTAL: 17
  Blood Pressure (clinician): n >60 m: 1
[2]
  Blood Pressure (clinician): 31-60 m: 8
  Blood Pressure (clinician): 61-90 m: 1
  Blood Pressure (clinician): % >60 m: 10%
  Blood Pressure (clinician): TOTAL: 10
  Blood Pressure (clinician): n >60 m: 1
[3]
  Blood Pressure (clinician): 31-60 m: 20
  Blood Pressure (clinician): 61-90 m: 1
  Blood Pressure (clinician): % >60 m: 4.8%
  Blood Pressure (clinician): TOTAL: 21
  Blood Pressure (clinician): n >60 m: 1
Based on Week 1, Once, Month 2
  Blood Pressure (clinician): 31-60 m: 9
  Blood Pressure (clinician): % >60 m: 0%
  Blood Pressure (clinician): TOTAL: 9
  Blood Pressure (clinician): n >60 m: 0
[4]
  Blood Pressure (clinician): 31-60 m: 4
  Blood Pressure (clinician): % >60 m: 0%
  Blood Pressure (clinician): TOTAL: 4
  Blood Pressure (clinician): n >60 m: 0
[5]
  Blood Pressure (clinician): 31-60 m: 1
  Blood Pressure (clinician): % >60 m: 0%
  Blood Pressure (clinician): TOTAL: 1
  Blood Pressure (clinician): n >60 m: 0
[6]
  Blood Pressure (clinician): 0-30 m: 1
  Blood Pressure (clinician): 31-60 m: 11
  Blood Pressure (clinician): 61-90 m: 1
  Blood Pressure (clinician): % >60 m: 7.7%
  Blood Pressure (clinician): TOTAL: 13
  Blood Pressure (clinician): n >60 m: 1
[7]
  Blood Pressure (clinician): 31-60 m: 10
  Blood Pressure (clinician): % >60 m: 0%
  Blood Pressure (clinician): TOTAL: 10
  Blood Pressure (clinician): n >60 m: 0
[8]
  Blood Pressure (clinician): 31-60 m: 3
  Blood Pressure (clinician): 61-90 m: 1
  Blood Pressure (clinician): % >60 m: 25%
  Blood Pressure (clinician): TOTAL: 4
  Blood Pressure (clinician): n >60 m: 1
[9]
  Blood Pressure (clinician): 31-60 m: 2
  Blood Pressure (clinician): % >60 m: 0%
  Blood Pressure (clinician): TOTAL: 2
  Blood Pressure (clinician): n >60 m: 0
[10]
  Blood Pressure (clinician): 31-60 m: 12
  Blood Pressure (clinician): 61-90 m: 1
  Blood Pressure (clinician): % >60 m: 14.2%
  Blood Pressure (clinician): >90 m: 1
  Blood Pressure (clinician): TOTAL: 14
  Blood Pressure (clinician): n >60 m: 2
[11]
  Dissociation (clinician), % >60 m: 0%
  Dizziness, % >60 m: 3.7%
  Sedation, % >60 m: 0%
  Vertigo, % >60 m: 4.2%
[12]
  Dissociation (clinician), % >60 m: 2.8%
  Dizziness, % >60 m: 2.9%
  Sedation, % >60 m: 11.8%
  Vertigo, % >60 m: 16.7%
[13]
  Dissociation (clinician), % >60 m: 4.5%
  Dizziness, % >60 m: 0%
  Sedation, % >60 m: 0%
  Vertigo, % >60 m: 11.1%
[14]
  Dissociation (clinician), % >60 m: 0%
  Dizziness, % >60 m: 4.3%
  Sedation, % >60 m: 15.8%
  Vertigo, % >60 m: 11.1%
[15]
  Dissociation (clinician), % >60 m: 4%
  Dizziness, % >60 m: 6.1%
  Sedation, % >60 m: 0%
  Vertigo, % >60 m: 15.8%
[16]
  Dissociation (clinician), % >60 m: 0%
  Dizziness, % >60 m: 0%
  Sedation, % >60 m: 0%
  Sedation, patients by time to onset: 0
  Vertigo, % >60 m: 16.7%
[17]
  Dissociation (clinician), % >60 m: 0%
  Dizziness, % >60 m: 0%
  Sedation, % >60 m: 0%
  Sedation, patients by time to onset: 0
  Vertigo, % >60 m: 0%
[18]
  Dissociation (clinician), % >60 m: 7.3%
  Dizziness, % >60 m: 5.4%
  Sedation, % >60 m: 57.1%
  Vertigo, % >60 m: 10.3%
[19]
  Dissociation (clinician), % >60 m: 0%
  Dizziness, % >60 m: 5.5%
  Sedation, % >60 m: 0%
  Vertigo, % >60 m: 0%
[20]
  Dissociation (clinician), % >60 m: 3%
  Dizziness, % >60 m: 2.9%
  Sedation, % >60 m: 0%
  Vertigo, % >60 m: 4%
[21]
  Dissociation (clinician), % >60 m: 0%
  Dizziness, % >60 m: 7.1%
  Sedation, % >60 m: 0%
  Vertigo, % >60 m: 0%
[22]
  Dissociation (clinician), % >60 m: 6.3%
  Dizziness, % >60 m: 7.9%
  Sedation, % >60 m: 16.7%
  Vertigo, % >60 m: 4.6%
Based on Week 4, None, Month 2
  Blood Pressure (clinician): 0-30 m: 1
  Blood Pressure (clinician): 31-60 m: 13
  Blood Pressure (clinician): 61-90 m: 2
  Blood Pressure (clinician): % >60 m: 11.1%
  Blood Pressure (clinician): TOTAL: 18
  Blood Pressure (clinician): n >60 m: 2
[23]
  Blood Pressure (clinician): 31-60 m: 13
  Blood Pressure (clinician): 61-90 m: 1
  Blood Pressure (clinician): % >60 m: 5.9%
  Blood Pressure (clinician): TOTAL: 17
